Assay results from PubChem BioAssay AID330 (DTP/NCI, 2004).
“And” between values parts separate entries of the source, which are not always exact repeats. Identical values can stand only once. Toxic doses and inconclusive results are not listed.

Tested on: P388 leukemia ip, CD2F1 mice, survival T/C
Assay: NCI In Vivo Anticancer Drug Screen. Data for tumor model P388 Leukemia (intraperitoneal) in CD2F1 (CDF1) mice
Settings: endpoint: median survival time, higher = longer survival
Summary of the method: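 Mice carrying the transplanted tumor received test compound or vehicle. Survival was recorded in each group, and the value is the treated-group measurement divided by that of the vehicle-treated control group.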

[1] = dose: 15.0 mg/kg/injection, schedule: Q01DX005 (ip), vehicle: saline with Tween-80
[2] = dose: 30.0 mg/kg/injection, schedule: Q01DX005 (ip), vehicle: saline with Tween-80
[3] = dose: 60.0 mg/kg/injection, schedule: Q01DX005 (ip), vehicle: saline with Tween-80
[4] = dose: 120.0 mg/kg/injection, schedule: Q01DX005 (ip), vehicle: saline with Tween-80

## NC(=O)c1cc([N+](=O)[O-])cc([N+](=O)[O-])c1Cl
dose: 6.25 mg/kg/injection, schedule: Q01DX009 (ip), vehicle: Klucel (hydroxypropylcellulose) (HPC)
  T/C: 102 % of control

## O=C(CCCc1ccc(N(CCCl)CCCl)cc1)NCC(O)C(O)C(O)C(O)CO (stereo not given)
[1]
  T/C: 187 % of control
[2]
  T/C: 201 % of control and 206 % of control
[3]
  T/C: 235 % of control and 250 % of control

## OC(c1cc(-c2ccccc2)nc2ccc(Cl)cc12)C1CCCCN1 (stereo not given)
dose: 50.0 mg/kg/injection, schedule: Q01DX005 (ip), vehicle: saline with Tween-80
  T/C: 97 % of control
dose: 100.0 mg/kg/injection, schedule: Q01DX005 (ip), vehicle: saline with Tween-80
  T/C: 90 % of control
dose: 200.0 mg/kg/injection, schedule: Q01DX005 (ip), vehicle: saline with Tween-80
  T/C: 99 % of control

## CCC(=O)c1ccc(NC(=O)Nc2ncccn2)cc1
dose: 60.0 mg/kg/injection, schedule: Q01DX005 (ip), vehicle: Klucel (hydroxypropylcellulose) (HPC)
  T/C: 86 % of control
dose: 120.0 mg/kg/injection, schedule: Q01DX005 (ip), vehicle: Klucel (hydroxypropylcellulose) (HPC)
  T/C: 89 % of control
dose: 240.0 mg/kg/injection, schedule: Q01DX005 (ip), vehicle: Klucel (hydroxypropylcellulose) (HPC)
  T/C: 95 % of control

## CC1=C([N+](=O)[O-])[C@@H](N2CCOCC2)[C@](C)(N2CCOCC2)S1
dose: 50.0 mg/kg/injection, schedule: Q01DX005 (ip), vehicle: Klucel (hydroxypropylcellulose) (HPC)
  T/C: 105 % of control
dose: 100.0 mg/kg/injection, schedule: Q01DX005 (ip), vehicle: Klucel (hydroxypropylcellulose) (HPC)
  T/C: 105 % of control
dose: 200.0 mg/kg/injection, schedule: Q01DX005 (ip), vehicle: Klucel (hydroxypropylcellulose) (HPC)
  T/C: 105 % of control

## COC(=O)CCC(=O)Nc1cc(Cl)c(Cl)cc1Cl
[3]
  T/C: 100 % of control
[4]
  T/C: 93 % of control
dose: 240.0 mg/kg/injection, schedule: Q01DX005 (ip), vehicle: saline with Tween-80
  T/C: 91 % of control

## CC1=Nc2ccc(C)cc2N=C(C)C1
dose: 50.0 mg/kg/injection, schedule: Q01DX009 (ip), vehicle: saline
  T/C: 86 % of control
dose: 100.0 mg/kg/injection, schedule: Q01DX009 (ip), vehicle: saline
  T/C: 91 % of control

## C/C(=N\Nc1cc(C)nc2ccc(C)cc12)c1cn(C)n(-c2ccccc2)c1=O
dose: 50.0 mg/kg/injection, schedule: Q01DX009 (ip), vehicle: Klucel (hydroxypropylcellulose) (HPC)
  T/C: 97 % of control
dose: 100.0 mg/kg/injection, schedule: Q01DX009 (ip), vehicle: Klucel (hydroxypropylcellulose) (HPC)
  T/C: 86 % of control

## Oc1ccccc1C=NCCN1CC1.Oc1ccccc1C=NCCN1CC1.[Co+2]
dose: 4.7 mg/kg/injection, schedule: Q01DX009 (ip), vehicle: saline
  T/C: 103 % of control
dose: 9.4 mg/kg/injection, schedule: Q01DX009 (ip), vehicle: saline
  T/C: 102 % of control
dose: 18.8 mg/kg/injection, schedule: Q01DX009 (ip), vehicle: saline
  T/C: 100 % of control
dose: 37.5 mg/kg/injection, schedule: Q01DX009 (ip), vehicle: saline
  T/C: 100 % of control and 97 % of control

## CC(C)C=C1[C@H](O)CC[C@@H]1O
dose: 100.0 mg/kg/injection, schedule: Q04DX002 (ip), vehicle: saline
  T/C: 101 % of control
dose: 200.0 mg/kg/injection, schedule: Q04DX002 (ip), vehicle: saline
  T/C: 101 % of control
dose: 400.0 mg/kg/injection, schedule: Q04DX002 (ip), vehicle: saline
  T/C: 96 % of control

## CCCCCCCCCCCC#N
dose: 100.0 mg/kg/injection, schedule: Q04DX003 (ip), vehicle: saline
  T/C: 108 % of control
dose: 200.0 mg/kg/injection, schedule: Q04DX003 (ip), vehicle: saline
  T/C: 104 % of control
dose: 400.0 mg/kg/injection, schedule: Q04DX003 (ip), vehicle: saline
  T/C: 116 % of control

## Cn1c(=O)nc2n(C)c3ccccc3cc-2c1=O
dose: 50.0 mg/kg/injection, schedule: Q01DX009 (ip), vehicle: saline with Tween-80
  T/C: 116 % of control
dose: 100.0 mg/kg/injection, schedule: Q01DX009 (ip), vehicle: saline with Tween-80
  T/C: 116 % of control
dose: 200.0 mg/kg/injection, schedule: Q01DX009 (ip), vehicle: saline with Tween-80
  T/C: 113 % of control

## CCC(c1ccc(O)cc1)C(CC)c1ccc(O)c(CN(C)C)c1 (stereo not given)
[1]
  T/C: 100 % of control
[2]
  T/C: 100 % of control
[3]
  T/C: 96 % of control
[4]
  T/C: 94 % of control

## CCOC(=O)/C=C(\Cl)C(=O)OCC
dose: 1.56 mg/kg/injection, schedule: Q01DX009 (ip), vehicle: saline with Tween-80
  T/C: 95 % of control
dose: 1.56 mg/kg/injection, schedule: Q01DX009 (ip), vehicle: saline
  T/C: 101 % of control
dose: 3.13 mg/kg/injection, schedule: Q01DX009 (ip), vehicle: saline with Tween-80
  T/C: 104 % of control and 110 % of control
dose: 3.13 mg/kg/injection, schedule: Q01DX009 (ip), vehicle: saline
  T/C: 103 % of control
dose: 6.25 mg/kg/injection, schedule: Q01DX009 (ip), vehicle: saline with Tween-80
  T/C: 111 % of control and 123 % of control
dose: 6.25 mg/kg/injection, schedule: Q01DX009 (ip), vehicle: saline
  T/C: 112 % of control
dose: 12.5 mg/kg/injection, schedule: Q01DX009 (ip), vehicle: saline with Tween-80
  T/C: 111 % of control
dose: 12.5 mg/kg/injection, schedule: Q01DX009 (ip), vehicle: saline
  T/C: 118 % of control
